“Also recorded” adds a separate entry of the source.
Columns and labels:
PC9 cells [1] = experiment: RapMIF pixel clustering and spatial signaling network; format: cell-based, human
Excerpt: Pixel clustering: Pixel phenotypes were clustered in a two-step clustering pipeline (FIG. 6A). From each pixel location within the cell segmented region, the intensity value of each marker expression was extracted. The resulting feature matrix consisted of n rows of a total number of pixels and p columns equal to the number of markers. Each column of the feature matrix was min-max normalized. Then to filter out the background, each pixel location (row in the matrix) with all markers intensity lower than 0.3 was considered as background and dropped from the feature matrix. The cut-off of 0.3 was determined empirically so noise was filtered out of the cell segmented region. The feature matrix was first clustered using the K-Means algorithm with a high number of clusters (k=60). Then, the mean expression per cluster was calculated and the cluster was merged based on hierarchical clustering on the cosine similarity of the mean expression using the average linkage method with a tolerance of 0.2 of the maximum distance between clusters. The latent feature space was obtained using Uniform manifold approximation and projection (UMAP) and cluster labels were visualized by assigning each cluster color and reprojected on the UMAP embedding. A Heatmap of the mean expression level of marker per cluster was generated to show the variation of cluster phenotype.
Spatial signaling network: The network representation of spatial signaling was represented using the spatial information of pixel clustering. Each cluster was represented by a node with node size in the network proportional to the number of pixels in the corresponding cluster. For each cluster, the distribution of the neighbor cluster was calculated by looking at the 2-hop neighbor's cluster of all pixels in the cluster. The edge color represented low (blue) to high (red) neighboring probability between two clusters.

PC9 cells [2] = experiment: Subpopulation clustering of single cells (Leiden); format: cell-based, human; conditions: 40 nM
Cyclin E/CDK2 [3] = experiment: RapMPI (multiplexed PLA) PPI counts in HCC827 cells; format: cell-based, human; conditions: 100 nM, 12 h, 5 PPI dataset
Protocol: (§1) Following that, the cells were then fixed and permeabilized with 1.6% formaldehyde in 1×PBS for 10 minutes at RT and 0.5% Triton X-100 for 10 minutes at RT, respectively. The cells were then blocked using a cell staining medium (CSM) containing 0.5% BSA, and 0.02% Sodium Azide in PBS. […] HCC827 cells were stained with p-ERK overnight followed by 1-hour incubation of secondary antibodies at RT, and 10 mins DAPI staining. The cells were then imaged at 40× magnification, and the intensity levels were analyzed. […] The coverslip was mounted to an acrylic holder for multiple cycles of staining.
(§2) RapMPI on cell cultures: For single color detection, each coverslip prepared with cells was stained with multiple PPIs with one PPI per cycle. The cells were fixed, permeabilized, and then ready for the following staining steps: 1) block the sample with Duolink blocking solution; 2) incubate it with one pair of proteins, conjugated to one PLUS and one MINUS oligonucleotide at 4° C. overnight.
(§3) PPI detection: PPI signals were detected using a custom algorithm leveraging a traditional image processing pipeline. More specifically, each PPI image was preprocessed as followed: images were first transformed using a top-hat filter of size 3 pixels to reduce the noise around PPI signals, then Laplacian of Gaussian images was used to detect bright local maxima as PPI signals. In 3D images, double detection of PPI was filtered out at the same position in consecutive Z stacks. After detecting all the PPI locations in 3D, PPI was observed within a 2.5-pixel radius (0.045 um) by creating a PPI neighborhood graph of radius threshold 2.5 pixels and getting all connected components in the graph. Finally, the mean position of the unique connected components in the graph was extracted as identified unique PPI signals in 3D.

p-AKT/mTOR = experiment: as above; format: cell-based, human; conditions: 100 nM, 12 h, 5 PPI dataset
Protocol: as §1, §2, §3

p-ERK/c-Myc = experiment: as above; format: cell-based, human
Protocol: as §1, §2, §3

Mcl-1/Bak = conditions: HCC827 cells, 100 nM, 12 h, 5 PPI dataset
Protocol: as §1, §2
PPI detection: PPI signals were detected using a custom algorithm leveraging a traditional image processing pipeline. More specifically, each PPI image was preprocessed as followed: images were first transformed using a top-hat filter of size 3 pixels to reduce the noise around PPI signals, then Laplacian of Gaussian images was used to detect bright local maxima as PPI signals. […]

AKT/mTOR pathways = experiment: RapMPI on HCC827 xenograft tissue; format: in vivo, mouse; conditions: 2-month vs 1-week treatment
Excerpt: (§4) Tissues: HCC827-derived mouse xenografts were provided by Dr. Sun Shi-yong (Emory University). […] Mice were then euthanized, and the tumor was embedded in OCT for sectioning. The OCT tissues were fixed in acetone, rehydrated, permeabilized in 0.4% Triton X-100, blocked, and ready for multiplexed experiments.
(§5) The staining settings were the same as the RapMPI in cell cultures. The blocking step between cycles for tissue multiplexing was skipped to avoid hiding the signals. The tissue samples were mounted with 10% glycerol made in 1×PBS and covered the slide using a 24×50 mm No. 1 coverslip (3322, Thermo Scientific) to prevent evaporation during imaging. To de-coverslip the sample after imaging, the slide was placed in a vertical jar containing 1×PBS for around 10 minutes, and the coverslip was released due to gravity.
(§6) To avoid loss of PPI information due to cell segmentation error, a nearest-distance-based assignment method was used to assign the PPI signal detected and not in any cell segmentation mask. For each PPI signal not in any segmented cell regions, the nearest cell mask pixel was observed and if the distance was lower than a user-defined value, it was assigned to the cell to which the nearest cell mask pixel belonged.

MEK/ERK signaling = experiment: RapMPI on HCC827 xenograft tissue; format: in vivo, mouse; conditions: 2-month vs 1-week treatment
Excerpt: as §4, §5, §6

cyclin E/CDK2 [4] = experiment: RapMPI on HCC827 xenograft tissue; format: in vivo, mouse; conditions: 1-week treatment (responders)
Excerpt: as §4, §5, §6

PC9 cells [5] = conditions: 0 to 10 nM, 3-day treatment; cited from earlier work
p-EGFR (Y1068) = conditions: PC9 cells; cited from earlier work
p-ERK = conditions: up to 24 hours; cited from earlier work
Mcl-1 = conditions: cited from earlier work
NSCLC patients = conditions: phase 3 clinical trial, 80 mg once daily, vs other EGFR-TKI drugs; cited from earlier work

C=CC(=O)Nc1cc(Nc2nccc(-c3cn(C)c4ccccc34)n2)c(OC)cc1N(C)CCN(C)C [Osimertinib]
spatial signaling networks (PC9 cells [1]): altered
p-β-catenin clusters 12 and 19: degree of node and neighborhoods (PC9 cells [1]; 40 nM vs control): higher degree of a node and more neighborhoods with p-EGFR clusters
distribution of spatial signaling network maps in the cytosol (clusters 0, 1, 2) (PC9 cells [1]; 40 nM, 48 hours vs control): more dispersed (i.e., less aggregated) distribution in the cytosol; also recorded: more dispersed distribution in the cytosol
proportion (frequency) of cluster 2 (WNT1) and cluster 6 (non-p-β-catenin) (PC9 cells [1]; after 40 nM drug treatment): occupied a large proportion (frequency) after drug treatment
degree of the node of WNT1 in cluster 2 (PC9 cells [1]; control vs 40 nM): reduced from 10 to 4
distribution of treated cells over 12 subpopulations (PC9 cells [2]): mainly distributed in subpopulation 3 and subpopulation 0
interaction between cyclin E and CDK2 (PPI count) (Cyclin E/CDK2 [3]): effectively inhibited
p-AKT/mTOR interactions in the cytoplasm (p-AKT/mTOR): downregulated the p-AKT/mTOR pathway reducing the interactions in the cytoplasm
P-ERK/c-Myc interactions (PPI count) (p-ERK/c-Myc; 100 nM, 12 h, 5 PPI dataset): significantly increased interactions; also recorded: upregulation
p-ERK/c-Myc PPI (p-ERK/c-Myc; 12 hours, 9 PPI dataset): effectively inhibited
Mcl1/Bak interaction (PPI count), cytoplasm or whole cell (Mcl-1/Bak): did not exhibit an obvious change
AKT/mTOR pathways in pan-cytokeratin positive regions (AKT/mTOR pathways): downregulating
MEK/ERK signaling in pan-cytokeratin positive regions (MEK/ERK signaling): enhanced
cyclin E/CDK2 PPI in responders (cyclin E/CDK2 [4]): downregulation
cell survival rate (PC9 cells [5]): decreased as the concentration has increased from 0 to 10 nM; also recorded: decreased as the concentration was increased from 0 to 10-nM
p-EGFR (Y1068) level (p-EGFR (Y1068)): failed to alter the p-EGFR (Y1068)
p-ERK, total protein level by western blot (p-ERK): inhibitory role of Osimertinib on p-ERK for up to 24 hours
Mcl-1 level (Mcl-1): downregulates Mcl-1
overall survival (NSCLC patients): longer; also recorded: extended
progression-free survival (NSCLC patients): longer; also recorded: extended

Source: patent publication US20240060990A1, “SPATIAL SIGNALING NETWORKS FOR MULTIPLEXED DRUG RESPONSE MEASUREMENT AND MODELING” (Georgia Tech Research Corporation, priority 2022, published 2024)
